In patent US7858635B2 (priority 2005, dated 2010):

How the values were obtained:
[1] = target: T1, M1 muscarinic receptor (Homo sapiens, UniProt P11229); assay: Functional mobilization of intracellular calcium (FLIPR, Fluo-3), M1-CHO cells; format: cell-based; conditions: compound nos. 1-454; for Emax: read-out: M1 Efficacy; for M1 Activity: M1-CHO cells, calcium mobilization
T1 construct: expressed in transfected cells; host or cells: CHO cells (M1-CHO, under zeocin and G418 selection)
T1 sequence (P11229 1-460): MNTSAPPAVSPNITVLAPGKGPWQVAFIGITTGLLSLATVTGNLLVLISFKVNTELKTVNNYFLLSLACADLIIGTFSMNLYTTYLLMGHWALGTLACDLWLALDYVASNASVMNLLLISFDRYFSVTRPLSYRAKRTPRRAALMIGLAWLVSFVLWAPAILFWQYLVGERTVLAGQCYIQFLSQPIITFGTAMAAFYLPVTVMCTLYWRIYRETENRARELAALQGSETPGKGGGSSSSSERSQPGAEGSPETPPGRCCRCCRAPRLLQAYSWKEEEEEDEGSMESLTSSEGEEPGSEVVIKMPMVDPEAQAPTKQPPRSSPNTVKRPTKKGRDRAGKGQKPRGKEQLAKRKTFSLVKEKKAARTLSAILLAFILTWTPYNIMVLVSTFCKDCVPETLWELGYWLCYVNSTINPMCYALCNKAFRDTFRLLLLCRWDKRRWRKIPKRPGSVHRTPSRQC
In short: (§1)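 Intracellular calcium was tracked by fluorescence (488/540 nm) over 60 sec after compound addition to dye-loaded CHO cells expressing the receptor. Inhibitory activity used a 15 min pre-incubation before carbachol at the subtype EC80.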

[2] = target: T2, M4 muscarinic receptor (Homo sapiens, UniProt P08173); assay: Functional mobilization of intracellular calcium (FLIPR, Fluo-3), M4-CHO cells; format: cell-based; conditions: compound nos. 1-454; for Emax: read-out: M4 Efficacy; for M4 Activity: M4-CHO cells, calcium mobilization
T2 construct: expressed in transfected cells; host or cells: CHO cells (M4-CHO, under puromycin, zeocin and blasticidin selection)
T2 sequence (P08173 1-479): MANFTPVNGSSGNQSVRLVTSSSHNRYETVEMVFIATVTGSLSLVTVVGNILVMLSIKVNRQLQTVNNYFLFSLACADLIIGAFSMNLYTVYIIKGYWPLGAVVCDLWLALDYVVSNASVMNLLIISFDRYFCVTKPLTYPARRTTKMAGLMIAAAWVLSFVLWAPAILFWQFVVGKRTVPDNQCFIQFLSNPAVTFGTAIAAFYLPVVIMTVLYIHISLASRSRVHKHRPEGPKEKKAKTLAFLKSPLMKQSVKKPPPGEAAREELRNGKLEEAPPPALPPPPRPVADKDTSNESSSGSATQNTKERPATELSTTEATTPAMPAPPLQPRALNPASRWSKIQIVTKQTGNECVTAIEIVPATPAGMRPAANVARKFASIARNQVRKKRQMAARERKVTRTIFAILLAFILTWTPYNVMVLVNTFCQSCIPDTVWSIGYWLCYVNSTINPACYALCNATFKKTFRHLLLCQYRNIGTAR
In short: as §1

[3] = 100% efficacy is the maximum response obtained with the Carbachol control

| SMILES | Emax [1, 3] [%] | M1 Activity [1] | Emax [2, 3] [%] | M4 Activity [2] | M1 Efficacy [1, 3] | M4 Efficacy [2, 3] |
| --- | --- | --- | --- | --- | --- | --- |
| Fc1ccc2c(c1)C1(CCN(C[C@H]3C[C@H]4CC[C@H]3O4)CC1)CN2 [compound 300] | 65 to 85 | ++ (activity was measured to be between 0.7 μM and 3.0 μM) | < 55 | + (activity was measured to be greater than or equal to 4.0 μM) |  |  |
| O=C(O[C@H]1CCOC1)N1C2CCC1CC(N1CCC3(CC1)C(=O)Nc1ccccc13)C2 (stereo partly drawn) [compound 301] | < 65 | + (activity was measured to be greater than or equal to 3.0 μM) | < 55 | + (activity was measured to be greater than or equal to 4.0 μM) |  |  |
| CCCOC(=O)N1C2CCC1CC(N1CCC3(CC1)CN(C(=O)C1CCC1)c1ccc(F)cc13)C2 (stereo not drawn) [compound 302] | < 65 | + (activity was measured to be greater than or equal to 3.0 μM) | < 55 | + (activity was measured to be greater than or equal to 4.0 μM) |  |  |
| CCOC(=O)N1CCC(N2CCC3(CC2)CN(CC(=O)CC)c2ccc(F)cc23)CC1 [compound 303] | > 85 | ++ (activity was measured to be between 0.7 μM and 3.0 μM) | < 55 | + (activity was measured to be greater than or equal to 4.0 μM) |  |  |
| COCCOC(=O)N1CC2(CCN(C3CC4CCC(C3)N4C(=O)O[C@@H]3CCOC3)CC2)c2cc(F)ccc21 (stereo partly drawn) [compound 304] | 65 to 85 | +++ (activity was measured to be less than or equal to 0.7 μM) | < 55 | + (activity was measured to be greater than or equal to 4.0 μM) |  |  |
| CC(=O)NC1CC2(CCN(CC3CC4C=CC3C4)CC2)c2ccccc21 (stereo not drawn) [compound 305] |  | + (activity was measured to be greater than or equal to 3.0 μM) |  | + (activity was measured to be greater than or equal to 4.0 μM) | + (efficacy was calculated to be 65% or less) | + (efficacy was calculated to be 55% or less) |
| CCCOC(=O)N1CCC(CN2CCC3(CC2)CN(C(C)=O)c2ccc(C)cc23)CC1 [compound 306] | < 65 | + (activity was measured to be greater than or equal to 3.0 μM) | < 55 | + (activity was measured to be greater than or equal to 4.0 μM) |  |  |
| CCOC(=O)N1CCC(CN2CCC3(CC2)CN(C(C)=O)c2c(F)cccc23)CC1 [compound 307] | 65 to 85 | ++ (activity was measured to be between 0.7 μM and 3.0 μM) | < 55 | + (activity was measured to be greater than or equal to 4.0 μM) |  |  |
| CCOC(=O)N1C2CCC1CC(N1CCC3(CC1)CNc1ccc(F)cc13)C2 (stereo not drawn) [compound 310] | < 65 | ++ (activity was measured to be between 0.7 μM and 3.0 μM) | < 55 | + (activity was measured to be greater than or equal to 4.0 μM) |  |  |
| COCCOC(=O)N1C2CCC1CC(N1CCC3(CC1)CN(C(=O)C1CC1)c1ccc(F)cc13)C2 (stereo not drawn) [compound 311] | 65 to 85 | +++ (activity was measured to be less than or equal to 0.7 μM) | 55 to 70 | + (activity was measured to be greater than or equal to 4.0 μM) |  |  |
| C1=C[C@H]2C[C@H]1C[C@H]2CN1CCC2(CCc3ccccc32)CC1 [compound 313] | < 65 | + (activity was measured to be greater than or equal to 3.0 μM) | < 55 | + (activity was measured to be greater than or equal to 4.0 μM) |  |  |
| CCOC(=O)N1CCC(C)(CN2CCC3(CC2)C[C@H](NC(C)=O)c2ccccc23)CC1 [compound 315] | < 65 | + (activity was measured to be greater than or equal to 3.0 μM) | < 55 | + (activity was measured to be greater than or equal to 4.0 μM) |  |  |
